How the values were obtained:
Type in all cases: in vivo, mouse
[1] = test system: C57BL/6J mice; assay: Novel object recognition test, old mice; settings: old mice with exercise and surgery; intraperitoneal valeric acid once a week vs normal saline
[2] = test system: C57BL/6J mice; assay: Barnes maze test, young adult mice
[3] = test system: C3; assay: C3 in the hippocampus by ELISA
Protocol: IL-1β, IL-6, C3 and GDNF in the hippocampus were detected by using ELISA kits. For testing the IL-1β, IL-6 and GDNF, brain tissues were homogenized on ice in the RIPA buffer containing 25 mM Tris-HCl with pH 7.6, 150 mM NaCl, 1% sodium deoxycholate, 0.1% SDS and a protease inhibitor cocktail containing 10 mg/ml aproteinin, 5 mg/ml peptastin, 5 mg/ml leupetin and 1 mM phenylmethane sulfonylfluoride. For C3 testing, brain tissues were homogenized on ice in the PTR buffer (supplied in the kit). The supernatant was collected for ELISA detection after the homogenate was centrifuged at 13,000 g for 20 min at 4° C. and the protein concentration was determined by the BCA protein assay (Bio-Rad, Hemel Hempstead, Herts, UK). IL-1β, IL-6, C3 and GDNF in supernatant of brain were detected according to the manufacturer's instruction for ELISA, and the amount of them in each sample in the brain was normalized by its total protein content and was expressed as pg/mg protein.

[4] = test system: IL-17; assay: ELISA of IL-17 in the brain
Protocol: Mice were weighed and anesthetized with isoflurane at 24 h after MCAO. Blood samples were obtained from the right heart after thoracotomy. Blood was centrifuged (13,000 g, 4° C.) after it had been placed at 4° C. for 2 h for the collection of serum. After the collection of blood, mice were perfused with 4° C. saline for brain tissue harvesting. The cerebral cortex (anteroposterior: −1.5 to 2.5 mm, mediolateral: 1.0 to 3.0 mm) was dissected out. All dissection procedures were performed on ice.
IL-10, IL-17, IL-1β and IL-6 in the serum and brain were detected by using ELISA kits (catalog number: M1000B, M1700, MLB00C and D6050, R&D SYSTEM, Inc., Minneapolis, MN, USA) as we described before. The brain tissues were homogenized on ice in the RIPA buffer containing 25 mM Tris-HCl with pH 7.6, 150 mM NaCl, 1% sodium deoxycholate and 0.1% SDS (catalog number: 89901, Thermo Scientific, Rockford, IL, USA) and a protease inhibitor cocktail containing 10 mg/ml aproteinin, 5 mg/ml peptastin, 5 mg/ml leupetin and 1 mM phenylmethane sulfonylfluoride (catalog number: SRE0055, Sigma-Aldrich, St. Louis, MO, USA). The supernatant was collected for ELISA detection after being centrifuged for 20 min (13,000 g, 4° C.) and the protein concentration was determined by the BCA method. Cytokines in the serum and supernatant of brain were detected according to the manufacturer's instruction. The amount of IL-10, IL-17, IL-1β and IL-6 in each sample in the brain was normalized by its protein content.

[5] = Cortical valeric acid quantification by HPLC; settings: 9-week old mice, intraperitoneal valeric acid vs normal saline; 24 h after the last injection
Protocol: The amount of valeric acid in the cerebral cortex harvested 24 h after the last intraperitoneal injection of valeric acid was determined by a method similar to that reported before. Briefly, 0.1 g cerebral cortex was homogenized in 500 μl aqueous acetonitrile. Supernatant was extracted with 8 ml extraction buffer (hexane: diethyl ether=1:1) and centrifuged at 1800 g for 5 min. 7.5 ml supernatant was collected, mixed with 93 μl 20 mM KOH in methanol and dried at 40° C. under nitrogen gas. Dried residue was reconstituted in 50 μl 2.5% 18-Crown-6 in acetonitrile and was further derivatized with 9-chloromethylanthracene in acetonitrile with addition of tetramethylammonium hydroxide. Finally, 30 μl derivatization solution was loaded to Acclaim C18 column (3 μm, 4.6×100 mm, Thermo Scientific) and separated in Ultimate 3000 high performance liquid chromatograph (HPLC, Thermo Scientific) equipped with UV-visible detector. The peak of derivatized valeric acid was detected at a wavelength of 254 nm. 2-Ethylbutyric acid (2-EA) was added as an internal reference control. The peak area of valeric acid was measured as mAU*min and its peak area of each sample was normalized with that of 2-EA in the sample. Final results were presented as ratios of valeric acid group to NS group.

[6] = test system: Iba-1; assay: Iba-1 immunofluorescent staining of hippocampus; settings: young adult mice with exercise and surgery; intraperitoneal valeric acid
Protocol: The immunofluorescent labeling and quantification of the staining were performed as described before. Briefly, brain was fixed in 4% paraformaldehyde at 4° C. for 24 h and then incubated in 30% sucrose over night at 4° C. before being frozen in optimal cutting temperature compound. Coronal 20-μm thick sections were cut sequentially from Bregma -3 to -6 mm by using a cryostat and mounted on microscope slides. After being washed in Tris-buffered saline (TBS), sections were blocked in 10% donkey serum plus 1% bovine serum albumin (BSA) in TBS containing 0. 3% triton-X 100 for 2 h at room temperature and then incubated at 4° C. overnight with the following primary antibodies: rabbit monoclonal anti-C3 antibody (1:50), goat monoclonal anti-GFAP antibody (1:200), rat monoclonal anti-[…] antibody (1:50) and rabbit monoclonal anti-Iba-1 antibody (1:200). Sections were rinsed in TBS with 0.1% Triton-x 100. […] The quantification was performed as described previously. […] The number of pixels per image with intensity above a predetermined threshold level was considered as a positively stained area for an interested marker and quantified using the Image-pro plus 6.0 (Media Cybernetics, Inc., Rockville, MD, USA) and presented as percentage of positive area in the total area. […] All quantitative analyses were performed in a blinded manner.

In the case of `CCCCC(=O)O` [valeric acid], the “performance in novel object recognition test” value [1] is reported as “impaired the performance”, the “performance in the Barnes maze” value ([2]; 13-week old mice without surgery, intracerebroventricular 4 mg/kg once daily for 4 days (1/50 dose of intraperitoneal injection)) is reported as “did not affect the performance” and the “time to identify target box in the Barnes maze test” value ([2]; young adult mice with exercise and surgery, valeric acid 200 mg/kg intraperitoneal once a week vs normal saline) is reported as “reversed the effects of exercise”. The “C3 in the brain (hippocampus)” value ([3]; 9-week old control mice, intraperitoneal valeric acid vs normal saline) was “increased”, the “exercise-induced reduction of C3 in the hippocampus” value ([3]; young adult mice with exercise and surgery, intraperitoneal valeric acid) was “this reduction was blocked” and the “IL-17 in the brain (cerebral cortex)” value ([4]; mice without MCAO, valeric sodium 100 mg/kg intraperitoneal for 7 days) was “increase”. For the same compound, the “IL-17 in the brain” value ([4]; young mice with brain ischemia (120-min MCAO), intraperitoneal valeric acid) was “did not increase”, the “amount of valeric acid in the brain (cerebral cortex)” value [5] was “increased” and the “exercise-induced reduction of Iba-1 in the hippocampus” value [6] was “this reduction was blocked”.

From patent US20250319139A1, “METHODS FOR TREATING NEUROINFLAMMATION” (University of Virginia Patent Foundation, priority 2021, published 2025)
